According to article PMC7024302, “Ultrashort Cationic Lipopeptides–Effect of N-Terminal Amino Acid and Fatty Acid Type on Antimicrobial Activity and Hemolysis” (Molecules, 2020):
≈ marks a conversion by molar mass, not a printed value. Residues, ends and D or L forms follow the SMILES beside them.

Legend:
[1] = tested on: A. baumannii ATCC BAA-1605; format: cell-based, Acinetobacter baumannii; settings: ATCC BAA-1605, 18 h
Text: (§1) The Acinetobacter baumannii ATCC BAA-1605, Candida albicans ATCC 10231, Enterococcus faecium ATCC 700221, Klebsiella aerogenes ATCC 13048 (previously known as Enterobacter aerogenes), Klebsiella pneumoniae ATCC 700603, Pseudomonas aeruginosa ATCC 9027, Staphylococcus aureus ATCC 25923 and MRSA ATCC 33591, were acquired from the American Type Culture Collection (ATCC). Before running the tests, beads with cryo-protected microorganisms were transferred into fresh MHB (BioMaxima, Lublin, Poland) for bacteria or RPMI-1640 for fungi and incubated for 24 h at 37 °C. Then, the culture was seeded on the Mueller-Hinton agar (MHA) plates (BioMaxima, Lublin, Poland) for bacteria or Sabouraud dextrose agar (SDA) plates (BioMaxima, Lublin, Poland) for fungi and incubated as just mentioned. Cell densities for all assays were adjusted spectrophotometrically (Multiskan™ GO Microplate Spectrophotometer, Thermo Fisher Scientific, Vantaa, Finland) at 600 nm for bacteria and at 530 nm for fungi.
(§2) The MICs were determined by broth microdilution method according to the Clinical and Laboratory Standard Institute guidelines. For this purpose initial inoculums of bacteria (5 × 10^5 CFU/mL) in MHB (BioMaxima, Lublin, Poland) and fungi (2 × 10^3 CFU/mL) in RPMI-1640 with 2% D-glucose (Merck, Darmstadt, Germany) prepared with MOPS (pH 7.0 ± 0.1 at 25 °C; Merck, Darmstadt, Germany) were exposed to the ranging concentration of lipopeptides (0.5–256 µg/mL) and incubated at 37 °C for 18 h and 24 h respectively. The experiments were conducted on 96-well microtiter polystyrene plates (Kartell, Italy). The MIC was taken as the lowest peptide concentration at which a noticeable growth of microorganisms was inhibited. All experiments were conducted in triplicate.

[2] = Determination of peptide hydrophobicity with RP-HPLC (adjusted retention time); format: physicochemical; settings: for tR’: Table 3, adjusted retention time as hydrophobicity; for tR’ / Adjusted retention time: RP-HPLC C18, linear 10–55% acetonitrile over 60 min; for tR’ / Adjusted retention time / tR’ (adjusted retention time): 0.1% TFA, 25.0 °C, UV 214 nm, triplicate; for Adjusted retention time: Table 2, nC = carbon atoms in fatty acid chain; for tR’ (adjusted retention time): Table 1 and b9, measure of hydrophobicity, RP-HPLC, Phenomenex Luna C18(2) 3.0 × 100 mm, 5 µm, linear 10–55% acetonitrile in water over 60 min, 0.5 mL/min, peptide 1 g/L
Protocol: To determine peptide hydrophobicity, the Waters Alliance e2695 system with a Waters 2998 PDA Detector (software-Empower®3) was used. All analyses were carried out on a Phenomenex Luna C18(2) column (3.0 × 100 mm, 5 µm particle size, 100 Å pore size). The peptides were dissolved in water (0.1% TFA, v/v) to obtain a concentration of 1 g/L. UV detection at 214 nm was used, and aliquots (10 µL) were eluted with a linear 10–55% acetonitrile gradient in deionized water over 60 min at 25.0 ± 0.1 °C. The mobile phase flow rate was 0.5 mL/min. Both eluents contained 0.1% (v/v) of TFA. Each peptide sample was analyzed in triplicate.

[3] = tested on: K. aerogenes ATCC 13048; format: cell-based, Klebsiella aerogenes; settings: ATCC 13048, 18 h
Text: as §1, §2

[4] = tested on: C. albicans ATCC 10231; format: cell-based, Candida albicans; settings: ATCC 10231, 24 h, pH 7
Text: as §1, §2

[5] = tested on: K. pneumoniae ATCC 700603; format: cell-based, Klebsiella pneumoniae; settings: ATCC 700603, 18 h
Text: as §1, §2

[6] = tested on: S. aureus ATCC 25923; format: cell-based, Staphylococcus aureus; settings: ATCC 25923, 18 h
Text: as §1, §2

[7] = tested on: S. aureus ATCC 33591 (MRSA); format: cell-based, Staphylococcus aureus; settings: ATCC 33591, 18 h
Text: as §1, §2

[8] = tested on: E. faecium ATCC 700221; format: cell-based, Enterococcus faecium; settings: ATCC 700221, 18 h
Text: as §1, §2

[9] = tested on: human red blood cells (hRBCs); format: cell-based; settings: red cells of human, 1 h
Protocol: The hemolysis assay was performed as described earlier according to the method of Avrahami and Shai. Fresh human red blood cells (hRBCs) with anticoagulant (EDTA) were rinsed three times with a PBS (Merck, Darmstadt, Germany) by centrifugation at 800× g for 10 min and resuspended in PBS. Lipopeptides were serially diluted on 96-well microtiter polystyrene plate and hRBCs were added to reach final volume of 100 µL. Peptide concentration ranged between 0.5 and 256 µg/mL and final hRBCs concentration was 4% (v/v). Controls for zero hemolysis (blank) and 100% hemolysis consisted of hRBCs suspended in PBS and 1% of Triton-X 100 (Merck, Darmstadt, Germany), respectively. The plate was incubated for 1 h at 37 °C and then centrifuged (800× g, 10 min, 4 °C). Subsequently, supernatant was […] to new microtiter plates and absorbance at 540 nm were measured. All experiments were conducted in triplicate. Protocol of the study received approval from the local Bioethics Committee at the Medical University of Gdańsk (NKBBN/262/2019).

[10] = tested on: P. aeruginosa ATCC 9027; format: cell-based, Pseudomonas aeruginosa; settings: ATCC 9027, 18 h
Text: as §1, §2

Row | MIC A [1] [µg/mL] | tR’ [2] [min] | MIC E2 [3] | MIC CA [4] [µg/mL] | MIC K [5] | MIC SA [6] [µg/mL] | MIC S [7] [µg/mL] | MIC E1 [8] [µg/mL] | HC50 [9] | MIC PA [10] [µg/mL] | Adjusted retention time [2] [min] | tR’ (adjusted retention time) [2] [min] | ∆tR ([2]; tR’ of the lipopeptide minus tR’ of C10-RR-NH2 or C12-RR-NH2, same RP-HPLC conditions) [min] | SMILES
1 | 128 (≈ 189 µM) | 35.80 | 256 µg/mL (≈ 378 µM) | 16 (≈ 23.6 µM) | 256 µg/mL (≈ 378 µM) | 16 (≈ 23.6 µM) | 16 (≈ 23.6 µM) | 8 (≈ 11.8 µM) | 50.31 (±0.52) µg/mL | 64 (≈ 94.5 µM) | – | – | – | CCCCCCCCCCCCCC(=O)N[C@@H](Cc1c[nH]cn1)C(=O)N[C@@H](CCCNC(=N)N)C(=O)N[C@@H](CCCNC(=N)N)C(N)=O [compound 34, C14-HRR-NH2] (HELM PEPTIDE1{[CCCCCCCCCCCCCC(=O)[*:2]].H.R.R.[am]}$$$$V2.0)
2 | 128 (≈ 186 µM) | 47.75 | 64 µg/mL (≈ 93.2 µM) | 2 (≈ 2.91 µM) | 64 µg/mL (≈ 93.2 µM) | 4 (≈ 5.82 µM) | 32 (≈ 46.6 µM) | 16 (≈ 23.3 µM) | 39.09 (±1.18) µg/mL | 8 (≈ 11.6 µM) | – | – | – | CCCCCCCCCCCCCC(=O)N[C@@H](Cc1ccccc1)C(=O)N[C@@H](CCCNC(=N)N)C(=O)N[C@@H](CCCNC(=N)N)C(N)=O [compound 26, C14-FRR-NH2] (HELM PEPTIDE1{[CCCCCCCCCCCCCC(=O)[*:2]].F.R.R.[am]}$$$$V2.0)
3 | 64 (≈ 98 µM) | 46.44 | 128 µg/mL (≈ 196 µM) | 4 (≈ 6.13 µM) | 128 µg/mL (≈ 196 µM) | 4 (≈ 6.13 µM) | 16 (≈ 24.5 µM) | 8 (≈ 12.3 µM) | 29.50 (±1.05) µg/mL | 4 (≈ 6.13 µM) | 46.441 | – | – | CCCCCCCCCCCCCC(=O)N[C@@H](CC(C)C)C(=O)N[C@@H](CCCNC(=N)N)C(=O)N[C@@H](CCCNC(=N)N)C(N)=O [compound 46, C14-LRR-NH2] (HELM PEPTIDE1{[CCCCCCCCCCCCCC(=O)[*:2]].L.R.R.[am]}$$$$V2.0)
4 | 64 (≈ 98 µM) | – | 32 µg/mL (≈ 49 µM) | 4 (≈ 6.13 µM) | 32 µg/mL (≈ 49 µM) | 4 (≈ 6.13 µM) | 8 (≈ 12.3 µM) | 8 (≈ 12.3 µM) | 37.54 (±1.39) µg/mL | 4 (≈ 6.13 µM) | 46.681 | – | – | CCCCCCCCCCCCCC(=O)N[C@@H](CCCC)C(=O)N[C@@H](CCCNC(=N)N)C(=O)N[C@@H](CCCNC(=N)N)C(N)=O [compound 66, C14-NleRR-NH2] (HELM PEPTIDE1{[CCCCCCCCCCCCCC(=O)[*:2]].[Nle].R.R.[am]}$$$$V2.0)

The next lines start with the compound.

Row | SMILES | MIC A [1] [µg/mL] | tR’ [2] [min] | MIC E2 [3] | MIC CA [4] [µg/mL] | MIC K [5] | MIC SA [6] [µg/mL] | MIC S [7] [µg/mL] | MIC E1 [8] [µg/mL] | HC50 [9] | MIC PA [10] [µg/mL] | Adjusted retention time [2] [min] | tR’ (adjusted retention time) [2] [min] | ∆tR ([2]; tR’ of the lipopeptide minus tR’ of C10-RR-NH2 or C12-RR-NH2, same RP-HPLC conditions) [min]
5 | CCCCCCCCCCCCCC(=O)N[C@@H](CCCCN)C(=O)N[C@@H](CCCNC(=N)N)C(=O)N[C@@H](CCCNC(=N)N)C(N)=O [compound 42, C14-KRR-NH2] (HELM PEPTIDE1{[CCCCCCCCCCCCCC(=O)[*:2]].K.R.R.[am]}$$$$V2.0) | 64 (≈ 95.8 µM) | 35.66 | 64 µg/mL (≈ 95.8 µM) | 32 (≈ 47.9 µM) | 128 µg/mL (≈ 192 µM) | 8 (≈ 12 µM) | 8 (≈ 12 µM) | 8 (≈ 12 µM) | 212.08 (±6.12) µg/mL | 64 (≈ 95.8 µM) | – | – | –
6 | CCCCCCCCCCCCCC(=O)N[C@@H](CCC(N)=O)C(=O)N[C@@H](CCCNC(=N)N)C(=O)N[C@@H](CCCNC(=N)N)C(N)=O [compound 78, C14-QRR-NH2] (HELM PEPTIDE1{[CCCCCCCCCCCCCC(=O)[*:2]].Q.R.R.[am]}$$$$V2.0) | 64 (≈ 95.8 µM) | 38.52 | 256 µg/mL (≈ 383 µM) | 32 (≈ 47.9 µM) | 256 µg/mL (≈ 383 µM) | 16 (≈ 24 µM) | 16 (≈ 24 µM) | 16 (≈ 24 µM) | 72.31 (±3.00) µg/mL | 32 (≈ 47.9 µM) | – | – | –
7 | CCCCCCCCCCCC(=O)N[C@@H](Cc1ccccc1)C(=O)N[C@@H](CCCNC(=N)N)C(=O)N[C@@H](CCCNC(=N)N)C(N)=O [compound 25, C12-FRR-NH2] (HELM PEPTIDE1{[CCCCCCCCCCCC(=O)[*:2]].F.R.R.[am]}$$$$V2.0) | 64 (≈ 97.1 µM) | 41.45 | 256 µg/mL (≈ 389 µM) | 8 (≈ 12.1 µM) | 256 µg/mL (≈ 389 µM) | 4 (≈ 6.07 µM) | 8 (≈ 12.1 µM) | 8 (≈ 12.1 µM) | 91.21 (±16.38) µg/mL | 8 (≈ 12.1 µM) | – | 41.45 | 8.87
8 | CCCCCCCCCCCC(=O)N[C@@H](CCCNC(=N)N)C(=O)N[C@@H](CCCNC(=N)N)C(N)=O [compound 3, C12-RR-NH2, reference compound] (HELM PEPTIDE1{[CCCCCCCCCCCC(=O)[*:2]].R.R.[am]}$$$$V2.0) | 256 (≈ 500 µM) | 32.58 | >256 (-) µg/mL | 64 (≈ 125 µM) | >256 (-) µg/mL | 32 (≈ 62.5 µM) | 32 (≈ 62.5 µM) | 32 (≈ 62.5 µM) | >256 µg/mL | 128 (≈ 250 µM) | – | 32.58 | –
9 | CCCCCCCCCCCC(=O)N[C@@H](Cc1c[nH]c2ccccc12)C(=O)N[C@@H](CCCNC(=N)N)C(=O)N[C@@H](CCCNC(=N)N)C(N)=O [compound 97, C12-WRR-NH2] (HELM PEPTIDE1{[CCCCCCCCCCCC(=O)[*:2]].W.R.R.[am]}$$$$V2.0) | 32 (≈ 45.8 µM) | 40.79 | 256 µg/mL (≈ 367 µM) | 8 (≈ 11.5 µM) | 256 µg/mL (≈ 367 µM) | 4 (≈ 5.73 µM) | 2 (≈ 2.87 µM) | 8 (≈ 11.5 µM) | 42.42 (±0.57) µg/mL | 8 (≈ 11.5 µM) | – | – | –
10 | CCCCCCCCCCCC(=O)N[C@@H](Cc1ccc(O)cc1)C(=O)N[C@@H](CCCNC(=N)N)C(=O)N[C@@H](CCCNC(=N)N)C(N)=O [compound 101, C12-YRR-NH2] (HELM PEPTIDE1{[CCCCCCCCCCCC(=O)[*:2]].Y.R.R.[am]}$$$$V2.0) | 32 (≈ 47.4 µM) | 36.17 | 128 µg/mL (≈ 190 µM) | 32 (≈ 47.4 µM) | 128 µg/mL (≈ 190 µM) | 8 (≈ 11.9 µM) | 8 (≈ 11.9 µM) | 16 (≈ 23.7 µM) | 123.08 (±1.12) µg/mL | 16 (≈ 23.7 µM) | – | – | –
